Measured values from ChEMBL document CHEMBL4800727 (2021).

Key:
[1] = target: Beta-3 adrenergic receptor (Homo sapiens) (UniProt P13945); settings: Compound concentration 10.0 uM
[2] = target: Sodium-dependent dopamine transporter (Homo sapiens, UniProt Q01959); assay: GPCRScan assay: inhibition of DAT; design: radioligand conc. used [nm] 3.6 – 16.0, parental cells stable HEK
[3] = target: Histamine H1 receptor (Homo sapiens) (UniProt P35367); assay: hH1 Cerep panel; settings: Compound concentration 10.0 uM
[4] = target: Protein kinase C eta type (Homo sapiens) (UniProt P24723); assay: protein kinase C, eta Millipore kinase panel; settings: Compound concentration 10.0 uM
[5] = target: Hepatocyte growth factor receptor (Homo sapiens) (UniProt P08581); assay: met proto-oncogene Millipore kinase panel; settings: Compound concentration 10.0 uM
[6] = target: Tyrosine-protein kinase ZAP-70 (Homo sapiens) (UniProt P43403); assay: zeta-chain associated protein kinase 70kDa Millipore kinase panel; settings: Compound concentration 10.0 uM
[7] = target: Nociceptin receptor (Homo sapiens) (UniProt P41146); assay: hORL1 Cerep panel; settings: Compound concentration 10.0 uM
Rattus norvegicus = species: Rattus norvegicus; assay: rGlutamate (ionotropic) MDL Cerep panel; settings: Compound concentration 10.0 uM
[8] = target: Mitogen-activated protein kinase 1 (Homo sapiens) (UniProt P28482); assay: mitogen-activated protein kinase 1 (MAPK2) Millipore kinase panel; settings: Compound concentration 10.0 uM
[9] = target: T1, 5-hydroxytryptamine receptor 1A (Homo sapiens) (UniProt P08908); assay: h5HT1A Cerep panel; settings: Compound concentration 10.0 uM
T1 sequence (whole entry): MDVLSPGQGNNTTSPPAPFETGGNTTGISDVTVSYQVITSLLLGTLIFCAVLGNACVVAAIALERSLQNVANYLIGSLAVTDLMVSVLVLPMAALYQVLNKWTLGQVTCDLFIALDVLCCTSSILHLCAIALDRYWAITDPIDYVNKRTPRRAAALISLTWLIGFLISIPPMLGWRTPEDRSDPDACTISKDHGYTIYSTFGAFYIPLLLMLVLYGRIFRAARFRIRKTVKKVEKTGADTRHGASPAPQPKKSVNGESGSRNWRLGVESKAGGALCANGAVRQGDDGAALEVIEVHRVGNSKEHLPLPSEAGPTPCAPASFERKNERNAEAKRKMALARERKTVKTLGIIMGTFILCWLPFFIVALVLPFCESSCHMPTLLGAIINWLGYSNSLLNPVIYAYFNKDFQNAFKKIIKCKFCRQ

[10] = target: Muscarinic acetylcholine receptor M5 (Homo sapiens) (UniProt P08912); assay: hM5 Cerep panel; settings: Compound concentration 10.0 uM
[11] = target: Serine/threonine-protein kinase pim-1 (Homo sapiens) (UniProt P11309); assay: pim-1 oncogene Millipore kinase panel; settings: Compound concentration 10.0 uM
[12] = target: Ribosomal protein S6 kinase alpha-6 (Homo sapiens) (UniProt Q9UK32); assay: ribosomal protein S6 kinase, 90kDa, polypeptide 6 Millipore kinase panel; settings: Compound concentration 10.0 uM
[13] = target: Serine/threonine-protein kinase PLK1 (Homo sapiens) (UniProt P53350); assay: polo-like kinase 1 Millipore kinase panel; settings: Compound concentration 10.0 uM
[14] = cML1 Cerep panel; settings: Compound concentration 10.0 uM
[15] = target: Ephrin type-A receptor 2 (Homo sapiens) (UniProt P29317); assay: EPH receptor A2 Millipore kinase panel; settings: Compound concentration 10.0 uM
[16] = target: High affinity nerve growth factor receptor (Homo sapiens) (UniProt P04629); assay: neurotrophic tyrosine kinase, receptor, type 1 Millipore kinase panel; settings: Compound concentration 10.0 uM
[17] = target: Protein kinase C gamma type (Homo sapiens) (UniProt P05129); assay: protein kinase C, gamma Millipore kinase panel; settings: Compound concentration 10.0 uM
[18] = target: Translocator protein (Homo sapiens) (UniProt P30536); assay: hTSPO Cerep panel; settings: Compound concentration 10.0 uM
[19] = target: Amine oxidase [flavin-containing] A (Homo sapiens, UniProt P21397); assay: hMAOA Cerep panel; settings: 10 µM, compound concentration 10 uM
[20] = target: Neurotensin receptor type 1 (Homo sapiens) (UniProt P30989); assay: hNT1 Cerep panel; settings: Compound concentration 10.0 uM
[21] = target: G protein-coupled receptor kinase 6 (Homo sapiens) (UniProt P43250); assay: G protein-coupled receptor kinase 6 Millipore kinase panel; settings: Compound concentration 10.0 uM
[22] = target: Rhodopsin kinase GRK7 (Homo sapiens) (UniProt Q8WTQ7); assay: G protein-coupled receptor kinase 7 Millipore kinase panel; settings: Compound concentration 10.0 uM
[23] = target: Serine/threonine-protein kinase pim-3 (Homo sapiens) (UniProt Q86V86); assay: pim-3 oncogene Millipore kinase panel; settings: Compound concentration 10.0 uM
[24] = target: Mitogen-activated protein kinase 14 (Homo sapiens) (UniProt Q16539); assay: mitogen-activated protein kinase 14 Millipore kinase panel; settings: Compound concentration 10.0 uM
[25] = target: Tyrosine-protein kinase TXK (Homo sapiens) (UniProt P42681); assay: TXK tyrosine kinase Millipore kinase panel; settings: Compound concentration 10.0 uM
[26] = target: 3',5'-cyclic-AMP phosphodiesterase 4D (Homo sapiens, UniProt Q08499); assay: hPDE4D2 Cerep panel; settings: Compound concentration 10.0 uM
[27] = target: Vascular endothelial growth factor receptor 2 (Homo sapiens) (UniProt P35968); assay: kinase insert domain receptor Millipore kinase panel; settings: Compound concentration 10.0 uM
[28] = target: Tyrosine-protein kinase Fgr (Homo sapiens) (UniProt P09769); assay: Gardner-Rasheed feline sarcoma viral (v-fgr) oncogene homolog Millipore kinase panel; settings: Compound concentration 10.0 uM
[29] = target: Tyrosine-protein kinase HCK (Homo sapiens) (UniProt P08631); assay: hemopoietic cell kinase Millipore kinase panel; settings: Compound concentration 10.0 uM
[30] = target: Ephrin type-A receptor 7 (Homo sapiens) (UniProt Q15375); assay: EPH receptor A7 Millipore kinase panel; settings: Compound concentration 10.0 uM
[31] = target: Tyrosine-protein kinase Lck (Homo sapiens) (UniProt P06239); assay: hLck Cerep panel; settings: Compound concentration 10.0 uM

Chain of Sodium-dependent dopamine transporter (Q01959 whole entry): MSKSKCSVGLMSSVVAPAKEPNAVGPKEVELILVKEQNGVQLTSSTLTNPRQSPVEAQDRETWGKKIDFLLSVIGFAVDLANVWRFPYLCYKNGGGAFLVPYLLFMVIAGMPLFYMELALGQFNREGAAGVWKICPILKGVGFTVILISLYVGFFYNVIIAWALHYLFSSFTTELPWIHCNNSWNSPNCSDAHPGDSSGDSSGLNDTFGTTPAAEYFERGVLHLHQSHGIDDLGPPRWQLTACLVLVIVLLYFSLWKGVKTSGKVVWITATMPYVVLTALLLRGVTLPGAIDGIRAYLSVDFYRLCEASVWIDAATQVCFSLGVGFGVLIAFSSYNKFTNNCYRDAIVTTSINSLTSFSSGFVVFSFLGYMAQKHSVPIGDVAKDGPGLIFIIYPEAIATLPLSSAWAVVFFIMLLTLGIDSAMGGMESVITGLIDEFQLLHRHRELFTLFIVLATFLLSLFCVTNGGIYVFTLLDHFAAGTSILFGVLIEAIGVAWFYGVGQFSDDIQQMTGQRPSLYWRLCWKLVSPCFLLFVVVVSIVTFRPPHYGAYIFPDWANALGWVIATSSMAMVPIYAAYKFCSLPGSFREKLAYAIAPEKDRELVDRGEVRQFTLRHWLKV
Chain of Tyrosine-protein kinase ZAP-70 (Homo sapiens) (P43403 whole entry): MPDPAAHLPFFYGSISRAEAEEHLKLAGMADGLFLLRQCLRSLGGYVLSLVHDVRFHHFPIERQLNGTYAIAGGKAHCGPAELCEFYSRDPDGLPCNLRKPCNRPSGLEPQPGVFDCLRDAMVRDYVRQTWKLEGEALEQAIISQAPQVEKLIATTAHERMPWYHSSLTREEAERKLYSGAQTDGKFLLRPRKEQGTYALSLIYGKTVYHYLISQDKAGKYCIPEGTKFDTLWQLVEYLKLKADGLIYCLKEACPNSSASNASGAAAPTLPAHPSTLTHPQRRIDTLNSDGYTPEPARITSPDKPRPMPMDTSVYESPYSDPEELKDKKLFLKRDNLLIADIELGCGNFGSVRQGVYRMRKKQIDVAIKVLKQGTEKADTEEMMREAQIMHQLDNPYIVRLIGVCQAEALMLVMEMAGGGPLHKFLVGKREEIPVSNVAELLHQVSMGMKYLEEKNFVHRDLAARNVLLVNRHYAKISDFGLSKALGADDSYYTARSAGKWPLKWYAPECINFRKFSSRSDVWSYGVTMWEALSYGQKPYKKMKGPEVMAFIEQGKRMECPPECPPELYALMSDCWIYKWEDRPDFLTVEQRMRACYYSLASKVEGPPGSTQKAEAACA
Chain of 3',5'-cyclic-AMP phosphodiesterase 4D (Q08499 whole entry, the tested form may be a part): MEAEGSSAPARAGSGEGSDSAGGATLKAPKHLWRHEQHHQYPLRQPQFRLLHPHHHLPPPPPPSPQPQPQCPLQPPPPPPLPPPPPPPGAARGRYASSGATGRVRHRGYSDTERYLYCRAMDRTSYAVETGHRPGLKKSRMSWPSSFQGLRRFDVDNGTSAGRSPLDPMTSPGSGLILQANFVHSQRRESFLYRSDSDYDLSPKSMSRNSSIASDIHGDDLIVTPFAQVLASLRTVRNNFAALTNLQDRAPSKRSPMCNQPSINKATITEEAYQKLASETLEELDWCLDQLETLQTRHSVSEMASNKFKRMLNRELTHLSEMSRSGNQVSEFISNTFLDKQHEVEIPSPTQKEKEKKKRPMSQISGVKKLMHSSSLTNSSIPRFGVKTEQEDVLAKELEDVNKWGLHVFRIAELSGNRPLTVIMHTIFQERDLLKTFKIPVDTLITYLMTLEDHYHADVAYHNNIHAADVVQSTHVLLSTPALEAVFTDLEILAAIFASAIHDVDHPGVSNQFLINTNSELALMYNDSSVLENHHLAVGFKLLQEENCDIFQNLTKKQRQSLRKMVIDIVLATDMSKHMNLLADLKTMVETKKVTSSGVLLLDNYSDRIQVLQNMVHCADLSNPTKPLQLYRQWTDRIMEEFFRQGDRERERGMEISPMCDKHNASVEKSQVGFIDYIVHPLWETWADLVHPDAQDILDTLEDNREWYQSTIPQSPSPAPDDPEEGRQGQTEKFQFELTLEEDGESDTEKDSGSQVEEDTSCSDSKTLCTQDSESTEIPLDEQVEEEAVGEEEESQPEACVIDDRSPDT
Chain of Mitogen-activated protein kinase 1 (Homo sapiens) (P28482 whole entry): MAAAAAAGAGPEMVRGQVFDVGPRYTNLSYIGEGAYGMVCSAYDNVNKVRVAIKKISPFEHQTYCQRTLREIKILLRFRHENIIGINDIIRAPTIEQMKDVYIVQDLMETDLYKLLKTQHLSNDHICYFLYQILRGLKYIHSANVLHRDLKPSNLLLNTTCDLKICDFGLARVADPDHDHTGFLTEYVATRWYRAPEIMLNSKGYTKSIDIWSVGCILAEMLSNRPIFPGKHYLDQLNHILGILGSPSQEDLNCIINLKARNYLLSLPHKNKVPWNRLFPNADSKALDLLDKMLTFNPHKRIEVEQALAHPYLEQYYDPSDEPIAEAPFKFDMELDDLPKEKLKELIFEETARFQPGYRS
Chain of Serine/threonine-protein kinase pim-1 (Homo sapiens) (P11309 whole entry, looked up): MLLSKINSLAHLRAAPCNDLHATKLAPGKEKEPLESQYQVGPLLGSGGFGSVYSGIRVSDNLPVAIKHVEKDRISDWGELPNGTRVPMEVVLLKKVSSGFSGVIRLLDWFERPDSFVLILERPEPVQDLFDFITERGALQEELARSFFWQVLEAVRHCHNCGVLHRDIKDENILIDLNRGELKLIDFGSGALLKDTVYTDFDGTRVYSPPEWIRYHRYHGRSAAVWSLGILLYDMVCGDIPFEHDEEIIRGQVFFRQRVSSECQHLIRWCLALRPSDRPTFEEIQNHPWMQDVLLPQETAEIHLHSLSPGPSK
Chain of Vascular endothelial growth factor receptor 2 (Homo sapiens) (P35968 whole entry, the tested form may be a part): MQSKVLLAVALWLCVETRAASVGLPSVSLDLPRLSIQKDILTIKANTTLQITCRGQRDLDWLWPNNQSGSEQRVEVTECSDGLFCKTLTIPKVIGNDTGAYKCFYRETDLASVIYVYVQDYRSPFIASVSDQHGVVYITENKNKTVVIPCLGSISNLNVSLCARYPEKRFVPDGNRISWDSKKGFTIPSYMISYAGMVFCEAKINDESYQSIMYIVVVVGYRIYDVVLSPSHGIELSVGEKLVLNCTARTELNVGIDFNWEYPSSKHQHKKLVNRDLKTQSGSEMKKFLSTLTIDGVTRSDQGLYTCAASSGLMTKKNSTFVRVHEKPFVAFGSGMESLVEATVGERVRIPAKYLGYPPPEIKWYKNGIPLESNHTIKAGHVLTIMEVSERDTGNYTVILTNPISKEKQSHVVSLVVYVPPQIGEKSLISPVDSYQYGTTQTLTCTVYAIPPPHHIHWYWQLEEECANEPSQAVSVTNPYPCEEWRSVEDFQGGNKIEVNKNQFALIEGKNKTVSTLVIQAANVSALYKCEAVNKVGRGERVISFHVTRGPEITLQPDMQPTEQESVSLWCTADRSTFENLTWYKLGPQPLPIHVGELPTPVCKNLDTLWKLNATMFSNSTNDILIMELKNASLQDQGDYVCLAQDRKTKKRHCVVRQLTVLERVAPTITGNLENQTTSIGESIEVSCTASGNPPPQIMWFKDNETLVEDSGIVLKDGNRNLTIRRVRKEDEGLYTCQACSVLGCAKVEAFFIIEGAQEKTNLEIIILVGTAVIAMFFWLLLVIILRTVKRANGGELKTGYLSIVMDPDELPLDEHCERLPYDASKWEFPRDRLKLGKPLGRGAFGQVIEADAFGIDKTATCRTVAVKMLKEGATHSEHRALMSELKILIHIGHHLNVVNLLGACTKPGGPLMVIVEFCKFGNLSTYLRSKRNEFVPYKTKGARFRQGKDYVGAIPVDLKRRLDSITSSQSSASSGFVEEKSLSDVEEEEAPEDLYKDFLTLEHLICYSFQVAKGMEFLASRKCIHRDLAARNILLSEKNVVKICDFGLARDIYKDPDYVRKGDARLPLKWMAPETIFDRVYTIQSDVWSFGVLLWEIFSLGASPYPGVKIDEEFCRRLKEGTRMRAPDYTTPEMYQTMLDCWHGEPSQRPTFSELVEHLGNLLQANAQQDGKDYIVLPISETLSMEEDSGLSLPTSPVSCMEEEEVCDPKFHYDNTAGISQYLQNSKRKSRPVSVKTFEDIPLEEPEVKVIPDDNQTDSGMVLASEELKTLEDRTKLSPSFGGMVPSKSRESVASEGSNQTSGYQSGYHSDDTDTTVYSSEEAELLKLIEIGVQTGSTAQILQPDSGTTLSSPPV
Chain of Tyrosine-protein kinase TXK (Homo sapiens) (P42681 whole entry): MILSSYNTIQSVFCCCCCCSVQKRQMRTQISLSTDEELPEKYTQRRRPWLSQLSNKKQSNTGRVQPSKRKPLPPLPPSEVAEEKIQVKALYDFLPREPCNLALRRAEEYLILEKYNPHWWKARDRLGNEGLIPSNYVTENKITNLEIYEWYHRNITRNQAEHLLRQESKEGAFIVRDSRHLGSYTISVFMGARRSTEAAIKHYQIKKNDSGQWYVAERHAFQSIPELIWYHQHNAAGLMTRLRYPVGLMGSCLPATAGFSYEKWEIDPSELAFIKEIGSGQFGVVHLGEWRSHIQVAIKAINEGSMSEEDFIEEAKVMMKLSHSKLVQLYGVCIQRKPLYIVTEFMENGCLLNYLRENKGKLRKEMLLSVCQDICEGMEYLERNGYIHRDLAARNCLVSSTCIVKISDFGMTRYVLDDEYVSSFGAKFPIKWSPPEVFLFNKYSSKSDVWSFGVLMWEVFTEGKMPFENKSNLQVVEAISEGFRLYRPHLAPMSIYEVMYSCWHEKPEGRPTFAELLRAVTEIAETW
Chain of Mitogen-activated protein kinase 14 (Homo sapiens) (Q16539 whole entry): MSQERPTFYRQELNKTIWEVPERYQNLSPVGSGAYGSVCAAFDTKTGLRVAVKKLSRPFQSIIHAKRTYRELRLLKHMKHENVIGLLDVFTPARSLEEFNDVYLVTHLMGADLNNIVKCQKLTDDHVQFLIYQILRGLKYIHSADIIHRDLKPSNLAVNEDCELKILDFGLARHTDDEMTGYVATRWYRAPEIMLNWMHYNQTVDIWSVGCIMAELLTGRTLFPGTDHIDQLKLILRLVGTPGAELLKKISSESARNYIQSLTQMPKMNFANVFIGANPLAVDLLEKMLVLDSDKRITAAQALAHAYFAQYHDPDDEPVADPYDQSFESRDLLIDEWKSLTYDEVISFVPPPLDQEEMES

c1ccc(C2CCN(c3cnc4c(N5CCOCC5)nccn34)CC2)cc1
inhibition [1]: 2.32% | Ki ([2]; read-out: Ki): 4.13 µM | Ki ([2]; read-out: pKi (converted)): 4.17 µM

COCCc1ccc(-c2c(C)nc3c(N4CCOCC4)ccnn23)cn1 [JNJ-42396302]
effect [3]: 2.05% | inhibition [4]: -2% | inhibition [5]: -6% | inhibition [6]: 4% | effect [7]: 2.15% | effect (Rattus norvegicus): -6.2% | inhibition [8]: 4% | effect [9]: 8.65% | effect [10]: -0.55% | inhibition [11]: 10% | inhibition [12]: -10% | inhibition [13]: 0% | effect [14]: -4.5% | inhibition [15]: 7% | inhibition [16]: 7% | inhibition [17]: -4% | effect [18]: 2.8% | effect [19]: 13.8% | effect [20]: 12.3% | inhibition [21]: 3% | inhibition [22]: 6% | inhibition [23]: 11% | inhibition [24]: -4% | inhibition [25]: 6% | effect [26]: 27.3% | inhibition [27]: -4% | inhibition [28]: 7% | inhibition [29]: -2% | inhibition [30]: 0% | effect [31]: -2.4%
